Test results reported in patent US20170008845A1, “PYRIDINYL CYCLOHEXANECARBOXAMIDE COOLING COMPOUNDS” (Givaudan, S.A., priority 2005, published 2017).
Read-outs that look alike come from different tables or passages of the source.

What was measured:
[1] = system: mouth and lips; conditions: 50 mL of 1% solution in alcohol per 1 liter mouthwash (with peppermint oil); 30 mL swished, gargled, spit out
Experimental: All the ingredients are mixed. 30 mL of obtained solution is put in the mouth, swished around, gargled and spit out.

[2] = system: panelists (cooling sensation in the mouth); conditions: cooling intensity similar to or slightly higher than menthol at 2 ppm
[3] = system: panelists (cooling sensation in the mouth); assay: Panel tasting of aqueous solutions: cooling intensity matched to menthol 2 ppm, and longevity; format: in vivo; conditions: for Longevity (time until no cooling could be sensed in the mouth): aqueous solution at the chosen concentration of Table 2; for Concentration with cooling intensity similar or slightly higher than menthol at 2 ppm: aqueous solution, tasted by a small panel
Text: The same panel is asked to taste these solutions at the chosen concentrations and to record the cooling intensity at regular time intervals until no cooling could be sensed in the mouth.

[4] = system: panelist's mouth; conditions: 2.500 g of 2% solution in propylene glycol in 97 g opaque toothgel (with peppermint oil); teeth brushed, mouth rinsed
Text: The chemicals are mixed in the toothgel, a piece of toothgel is put on a toothbrush and a panelist's teeth are brushed. The mouth is rinsed with water and the water is spit out.

[5] = system: panelist's mouth; conditions: 1.5 mg in 355 mL can of clear lemon/lime soda
Experimental: 1.5 mg of the compound of example 2 is dissolved in a 355 mL (12 fl oz.) can of clear lemon/lime soda.

Row | Structure (SMILES) | Cooling sensation in mouthwash [1] | Isointensive concentration [2] [ppm] | Isointensive concentration ([2]; listed as m = 0, 4) [ppm] | Longevity (time until no cooling could be sensed in the mouth) [3] [min] | Concentration with cooling intensity similar or slightly higher than menthol at 2 ppm [3] [ppm] | Cooling sensation in toothgel [4] | After-taste in beverage [5] | Cooling sensation in beverage [5] | Isointensive concentration ([2]; listed as m = 2, 2 or 6) [ppm]
1 | CC1CCC(C(C)C)C(C(=O)Nc2ccncc2)C1 (centres unmarked) [Example 1, N-(4-pyridinyl) p-menthanecarboxamide] | icy-cool sensation is felt in every area of the mouth as well as lips | 0.67 | 0.5 | 50 | 0.5 | – | – | – | –
2 | CC(C)[C@@H]1CC[C@@H](C)C[C@H]1C(=O)NCCc1ccccn1 [Example 2, (1R,2S,5R)-2-isopropyl-5-methyl-N-(2-(pyridin-2-yl)ethyl)cyclohexanecarboxamide] | – | 0.05 | – | 60 | 0.02 | intense cooling sensation is felt by the panelist in all areas of the mouth | No unpleasant after-taste | agreeable delayed cooling sensation in the mouth with no throat burning | 0.02
3 | CC(C)C(C)(C(=O)NCCc1ccccn1)C(C)C [Example 3, 2-isopropyl-2,3-dimethyl-N-(2-(pyridin-2-yl)ethyl)butanamide] | – | – | – | – | 0.4 | – | – | – | –
4 | CCNC(=O)C1CC(C)CCC1C(C)C (centres unmarked) [N-ethyl p-menthanecarboxamide (WS-3), N-ethyl p-menthanecarboxamide, reference compound] | – | – | – | 57 | 1.5 | – | – | – | –
5 | CC(C)[C@@H]1CC[C@@H](C)C[C@H]1O [l-Menthol, reference compound] | – | – | – | 35 | 2.0 | – | – | – | –
